Broadly, the melting point is the temperature of the solid-liquid transition.

`CNC(=O)c1ccc([C@@H]2C[C@H]3C=C(c4c[nH]c(-c5ccc(F)cc5)c4-c4ccncc4)CCN3C2)cc1` [Example 53, 2-(4-Fluorophenyl)-4-[(2S,8aS)-2-[4-(N-methylcarbamoyl)phenyl]-1,2,3,5,6,8a-hexahydroindolizin-7-yl]-3-(pyridin-4-yl)-1H-pyrrole] returned a melting point of 171 to 173 °C. Regarding `CC(C)NC(=O)c1ccc([C@@H]2C[C@H]3C=C(c4c[nH]c(-c5ccc(F)cc5)c4-c4ccncc4)CCN3C2)cc1` [Example 59, 2-(4-Fluorophenyl)-4-[(2S,8aS)-2-[4-(N-isopropylcarbamoyl)phenyl]-1,2,3,5,6,8a-hexahydroindolizin-7-yl]-3-(pyridin-4-yl)-1H-pyrrole], the melting point lay in the range of 202 to 204 °C. Molecule `CCNC(=O)c1ccc([C@@H]2C[C@H]3C=C(c4c[nH]c(-c5ccc(F)cc5)c4-c4ccncc4)CCN3C2)cc1` [Example 54, 4-[(2S,8aS)-2-[4-(N-Ethylcarbamoyl)phenyl]-1,2,3,5,6,8a-hexahydroindolizin-7-yl]-2-(4-fluorophenyl)-3-(pyridin-4-yl)-1H-pyrrole] yielded a melting point of 178 to 180 °C. For `COCCNC(=O)c1ccc([C@@H]2C[C@H]3C=C(c4c[nH]c(-c5ccc(F)cc5)c4-c4ccncc4)CCN3C2)cc1` [Example 61, 2-(4-Fluorophenyl)-4-[(2S,8aS)-2-[4-(N-(2-methoxyethyl)carbamoyl)phenyl]-1,2,3,5,6,8a-hexahydroindolizin-7-yl]-3-(pyridin-4-yl)-1H-pyrrole] the value was 166 to 168 °C; for `O=C(NCCF)c1ccc([C@@H]2C[C@H]3C=C(c4c[nH]c(-c5ccc(F)cc5)c4-c4ccncc4)CCN3C2)cc1` [Example 57, 4-[(2S,8aS)-2-[4-[N-(2-Fluoroethyl)carbamoyl]phenyl]-1,2,3,5,6,8a-hexahydroindolizin-7-yl]-2-(4-fluorophenyl)-3-(pyridin-4-yl)-1H-pyrrole], 183 to 185 °C; for `O=C(NC1CC1)c1ccc([C@@H]2C[C@H]3C=C(c4c[nH]c(-c5ccc(F)cc5)c4-c4ccncc4)CCN3C2)cc1` [Example 56, 4-[(2S,8aS)-2-[4-(N-Cyclopropylcarbamoyl)phenyl]-1,2,3,5,6,8a-hexahydroindolizin-7-yl]-2-(4-fluorophenyl)-3-(pyridin-4-yl)-1H-pyrrole], 200 to 202 °C.

As to `O=C(NCc1ccccc1)c1ccc([C@@H]2C[C@H]3C=C(c4c[nH]c(-c5ccc(F)cc5)c4-c4ccncc4)CCN3C2)cc1` [Example 55, 4-[(2S,8aS)-2-[4-(N-Benzylcarbamoyl)phenyl]-1,2,3,5,6,8a-hexahydroindolizin-7-yl]-2-(4-fluorophenyl)-3-(pyridin-4-yl)-1H-pyrrole], the melting point was in the range of 173 to 175 °C. For `CCCNC(=O)c1ccc([C@@H]2C[C@H]3C=C(c4c[nH]c(-c5ccc(F)cc5)c4-c4ccncc4)CCN3C2)cc1` [Example 58, 2-(4-Fluorophenyl)-4-[(2S,8aS)-2-[4-(N-propylcarbamoyl)phenyl]-1,2,3,5,6,8a-hexahydroindolizin-7-yl]-3-(pyridin-4-yl)-1H-pyrrole] the value was 190 to 192 °C.

Values taken from US20070049620A1, “Cyclic tertiary amine compound” (SANKYO COMPANY, LIMITED, priority 2003, published 2007).
